ChEMBL document CHEMBL5360573, “Discovery of novel tryptamine derivatives as GluN2B subunit-containing NMDA receptor antagonists via pharmacophore-merging strategy with orally available therapeutic effect of cerebral ischemia” (Eur J Med Chem, 2023)
The source made the active and inactive calls. The calls are words filed in the database; no cut-off is given here.

How the values were obtained:
SH-SY5Y [1] = test: Neuroprotective activity against NMDA-induced cell injury in human SH-SY5Y cells assessed as cell viability at 0.05 uM incubated for 6 hrs followed by NMDA treatment for 0.5 hrs and subsequent replacement of fresh medium without compounds by MTT assay relative to control; format: functional; conditions: time 6.5 hrs, read-out: Activity
SH-SY5Y [2] = test: Neuroprotective activity against NMDA-induced cell injury in human SH-SY5Y cells assessed as cell viability at 5 uM incubated for 6 hrs followed by NMDA treatment for 0.5 hrs and subsequent replacement of fresh medium without compounds by MTT assay relative to control; format: functional; conditions: time 6.5 hrs, read-out: Activity
SH-SY5Y [3] = test: Neuroprotective activity against NMDA-induced cell injury in human SH-SY5Y cells assessed as cell viability at 0.5 uM incubated for 6 hrs followed by NMDA treatment for 0.5 hrs and subsequent replacement of fresh medium without compounds by MTT assay relative to control; format: functional; conditions: time 6.5 hrs, read-out: Activity
[4] = Metabolic stability in human plasma assessed as compound remaining at 2 uM measured after 10 mins by LC-MS/MS analysis; format: ADME, cell-free; conditions: read-out: Stability
[5] = Metabolic stability in human plasma assessed as half life at 2 uM by LC-MS/MS analysis; format: ADME, cell-free
[6] = Metabolic stability in human plasma assessed as compound remaining at 2 uM measured after 30 mins by LC-MS/MS analysis; format: ADME, cell-free; conditions: read-out: Stability
[7] = Metabolic stability in human plasma assessed as compound remaining at 2 uM measured immediately by LC-MS/MS analysis; format: ADME, cell-free; conditions: read-out: Stability
[8] = molecular target: Glutamate receptor ionotropic, NMDA 2B (Homo sapiens) (UniProt Q13224); test: Antagonist activity against GluN2B NMDAR in human SH-SY5Y cells assessed as reduction in NMDA-induced intracellular influx at 5 uM incubated for 6 hrs followed by replacement of fresh medium without compounds and subsequent NMDA treatment by Fluo-4AM dye based calcium mobilization assay; format: cell-based; conditions: filed as antagonist
[9] = Metabolic stability in human plasma assessed as compound remaining at 2 uM measured after 120 mins by LC-MS/MS analysis; format: ADME, cell-free; conditions: read-out: Stability
[10] = Metabolic stability in human plasma assessed as compound remaining at 2 uM measured after 60 mins by LC-MS/MS analysis; format: ADME, cell-free; conditions: read-out: Stability
[11] = AUC (0 to infinity) in C57 mouse at 1 mg/kg, iv measured for 20 mins by LC-MS/MS analysis; format: ADME, organism-based; set-up: dose 1 mg/kg, time 20 min, route iv; conditions: in vivo
[12] = Oral bioavailability in C57 mouse at 10 mg/kg measured for 20 mins by LC-MS/MS analysis; format: ADME, organism-based; conditions: in vivo
[13] = Cmax in C57 mouse at 10 mg/kg, po measured for 20 mins by LC-MS/MS analysis; format: ADME, organism-based; set-up: dose 10 mg/kg, time 20 min, route po; conditions: in vivo
[14] = MRT (0 to infinity) in C57 mouse at 10 mg/kg, po measured for 20 mins by LC-MS/MS analysis; format: ADME, organism-based; conditions: in vivo
[15] = Half life in C57 mouse at 1 mg/kg, iv measured for 20 mins by LC-MS/MS analysis; format: ADME, organism-based; conditions: in vivo
[16] = molecular target: Glutamate receptor ionotropic, NMDA 2B (Homo sapiens) (UniProt Q13224); test: Antagonist activity against GluN2B NMDAR in human SH-SY5Y cells assessed as increase in NMDA-induced downregulation of phosphorylated ERK1/2 at 0.05 to 5 uM incubated for 6 hrs followed by NMDA treatment for 0.5 hrs and subsequent replacement of fresh medium without compounds by Western blot analysis; format: cell-based; conditions: filed as antagonist, dose 0.05-5 µM, time 6.5 hrs
[17] = AUC (0 to t) in C57 mouse at 10 mg/kg, po measured for 20 mins by LC-MS/MS analysis; format: ADME, organism-based; set-up: time 20 min, dose 10 mg/kg, route po; conditions: in vivo
[18] = MRT (0 to t) in C57 mouse at 1 mg/kg, iv measured for 20 mins by LC-MS/MS analysis; format: ADME, organism-based; conditions: in vivo
[19] = Clearance in C57 mouse at 1 mg/kg, iv measured for 20 mins by LC-MS/MS analysis; format: ADME, organism-based; conditions: in vivo
Mus musculus [20] = test: Neuroprotective activity against ICV-ET1-induced cerebral ischemia injury C57BL/6J mouse model assessed as increase in preferential index at 20 to 80 mg/kg, po administered daily measured on day 11 to 13 by novel object recognition test; format: functional, organism-based; conditions: dose 20-80 mg/kg, time 11-13 day
[21] = Cmax in C57 mouse at 1 mg/kg, iv measured for 20 mins by LC-MS/MS analysis; format: ADME, organism-based; set-up: dose 1 mg/kg, time 20 min, route iv; conditions: in vivo
[22] = Tmax in C57 mouse at 1 mg/kg, iv measured for 20 mins by LC-MS/MS analysis; format: ADME, organism-based; conditions: in vivo
[23] = MRT (0 to infinity) in C57 mouse at 1 mg/kg, iv measured for 20 mins by LC-MS/MS analysis; format: ADME, organism-based; conditions: in vivo
Mus musculus [24] = test: Neuroprotective activity against ICV-ET1-induced cerebral ischemia injury C57BL/6J mouse model assessed as improvement in escape latency at 20 to 80 mg/kg, po administered daily measured on day 14 to 19 by Morris water maze test; format: functional, organism-based; conditions: dose 20-80 mg/kg, time 14-19 day
[25] = Half life in C57 mouse at 10 mg/kg, po measured for 20 mins by LC-MS/MS analysis; format: ADME, organism-based; conditions: in vivo
[26] = MRT (0 to t) in C57 mouse at 10 mg/kg, po measured for 20 mins by LC-MS/MS analysis; format: ADME, organism-based; conditions: in vivo
Mus musculus [27] = test: Neuroprotective activity against ICV-ET1-induced cerebral ischemia injury C57BL/6J mouse model assessed as improvement of spontaneous alternation behavior administered orally daily for 10 days by Y-maze test; format: functional, organism-based; conditions: dose 20-80 mg/kg, route po, time 10.0 day
[28] = AUC (0 to infinity) in C57 mouse at 10 mg/kg, po measured for 20 mins by LC-MS/MS analysis; format: ADME, organism-based; set-up: dose 10 mg/kg, time 20 min, route po; conditions: in vivo
Mus musculus [29] = test: Neuroprotective activity against ICV-ET1-induced cerebral ischemia injury C57BL/6J mouse model assessed as improvement in swimming distance at 20 to 80 mg/kg, po administered daily measured on day 14 to 19 by Morris water maze test; format: functional, organism-based; conditions: dose 20-80 mg/kg, time 14-19 day
[30] = AUC (0 to t) in C57 mouse at 1 mg/kg, iv measured for 20 mins by LC-MS/MS analysis; format: ADME, organism-based; set-up: time 20 min, dose 1 mg/kg, route iv; conditions: in vivo
[31] = Tmax in C57 mouse at 10 mg/kg, po measured for 20 mins by LC-MS/MS analysis; format: ADME, organism-based; conditions: in vivo

Sequence of Glutamate receptor ionotropic, NMDA 2B (Homo sapiens) (Q13224 27-1484 limits assumed): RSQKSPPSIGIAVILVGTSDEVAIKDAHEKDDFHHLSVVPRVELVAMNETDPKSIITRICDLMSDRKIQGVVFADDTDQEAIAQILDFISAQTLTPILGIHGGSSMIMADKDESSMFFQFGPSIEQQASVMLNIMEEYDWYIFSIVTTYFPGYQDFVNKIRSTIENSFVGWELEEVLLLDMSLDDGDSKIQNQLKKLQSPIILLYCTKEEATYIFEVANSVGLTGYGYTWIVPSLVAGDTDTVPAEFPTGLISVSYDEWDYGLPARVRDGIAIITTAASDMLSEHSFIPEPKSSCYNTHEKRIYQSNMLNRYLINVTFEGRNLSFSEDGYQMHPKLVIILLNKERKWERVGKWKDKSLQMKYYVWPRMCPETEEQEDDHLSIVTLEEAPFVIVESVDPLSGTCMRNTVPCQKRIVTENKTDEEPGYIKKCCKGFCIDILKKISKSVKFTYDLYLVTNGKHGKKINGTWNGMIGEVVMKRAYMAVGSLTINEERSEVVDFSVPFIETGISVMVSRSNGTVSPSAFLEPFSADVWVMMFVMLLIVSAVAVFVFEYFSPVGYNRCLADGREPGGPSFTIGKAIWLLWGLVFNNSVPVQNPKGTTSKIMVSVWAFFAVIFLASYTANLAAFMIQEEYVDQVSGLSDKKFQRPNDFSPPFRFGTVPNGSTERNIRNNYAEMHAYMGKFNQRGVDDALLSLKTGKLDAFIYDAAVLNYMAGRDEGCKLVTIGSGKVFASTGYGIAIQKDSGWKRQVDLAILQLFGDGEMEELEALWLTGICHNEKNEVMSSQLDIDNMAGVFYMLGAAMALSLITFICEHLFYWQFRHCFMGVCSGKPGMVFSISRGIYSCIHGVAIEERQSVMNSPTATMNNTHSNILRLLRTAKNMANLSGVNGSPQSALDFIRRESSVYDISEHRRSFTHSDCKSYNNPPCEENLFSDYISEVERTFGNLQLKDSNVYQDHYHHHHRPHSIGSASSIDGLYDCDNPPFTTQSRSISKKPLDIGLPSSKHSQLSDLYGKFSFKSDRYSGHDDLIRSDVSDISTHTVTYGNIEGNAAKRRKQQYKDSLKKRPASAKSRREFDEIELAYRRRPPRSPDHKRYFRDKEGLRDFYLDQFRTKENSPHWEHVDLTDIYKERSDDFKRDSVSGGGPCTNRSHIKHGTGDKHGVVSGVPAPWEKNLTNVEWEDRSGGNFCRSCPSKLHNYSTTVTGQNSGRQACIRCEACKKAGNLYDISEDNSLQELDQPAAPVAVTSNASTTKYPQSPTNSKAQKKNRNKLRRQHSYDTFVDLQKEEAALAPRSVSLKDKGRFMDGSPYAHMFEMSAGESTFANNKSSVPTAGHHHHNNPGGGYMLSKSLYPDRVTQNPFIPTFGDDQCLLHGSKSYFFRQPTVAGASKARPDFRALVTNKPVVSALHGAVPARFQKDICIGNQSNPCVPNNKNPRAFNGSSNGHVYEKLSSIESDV

## O=C(/C=C/c1ccc(O)cc1)NCCc1cn(Cc2ccc(F)cc2)c2ccccc12
SH-SY5Y [1]
  viability at 0.05 µM: 35.8%
SH-SY5Y [2]
  viability at 5 µM: 20.8%
SH-SY5Y [3]
  viability at 0.5 µM: 49.8%

## CCCCn1cc(CCNC(=O)/C=C/c2ccc(O)cc2)c2ccccc21
SH-SY5Y [1]
  viability at 0.05 µM: 24.3%
SH-SY5Y [2]
  viability at 5 µM: 19.3%
SH-SY5Y [3]
  viability at 0.5 µM: 24.1%

## O=C(/C=C/c1ccc(O)cc1)NCCc1cn(Cc2ccc(Cl)cc2)c2ccccc12
SH-SY5Y [1]
  viability at 0.05 µM: 31.9%
SH-SY5Y [2]
  viability at 5 µM: 21.7%
SH-SY5Y [3]
  viability at 0.5 µM: 22.5%

## O=C(/C=C/c1ccc(O)cc1)NCCc1cn(Cc2ccccc2Cl)c2ccccc12
SH-SY5Y [1]
  viability at 0.05 µM: 13.6%
SH-SY5Y [2]
  viability at 5 µM: 5.9%
SH-SY5Y [3]
  viability at 0.5 µM: 10.1%

## CC(C(O)c1ccc(O)cc1)N1CCC(Cc2ccccc2)CC1 (centres undefined) [IFENPRODIL]
[4]
  remaining at 10 min, 2 µM: 97%
[5]
  half-life at 2 µM: > 289 min
[6]
  remaining at 0.5 h, 2 µM: 89.6%
SH-SY5Y [1]
  viability at 0.05 µM: 29.4%
[7]
  remaining at 0 min, 2 µM: 100%
[8]
  Activity: Active
SH-SY5Y [2]
  viability at 5 µM: 41%
[9]
  remaining at 2 h, 2 µM: 91.3%
SH-SY5Y [3]
  viability at 0.5 µM: 40.4%
[10]
  remaining at 1 h, 2 µM: 93.5%

## CCCn1cc(CCNC(=O)/C=C/c2ccc(O)cc2)c2ccccc21
SH-SY5Y [1]
  viability at 0.05 µM: 17.6%
SH-SY5Y [2]
  viability at 5 µM: 25.1%
SH-SY5Y [3]
  viability at 0.5 µM: 13.5%

## O=C(/C=C/c1ccc(O)cc1)NCCc1cn(Cc2ccccc2F)c2ccccc12
SH-SY5Y [1]
  viability at 0.05 µM: 32.4%
SH-SY5Y [2]
  viability at 5 µM: 24.7%
SH-SY5Y [3]
  viability at 0.5 µM: 32.4%

## O=C(/C=C/c1ccccc1)NCCc1cn(Cc2ccccc2)c2ccccc12
SH-SY5Y [1]
  viability at 0.05 µM: 30.4%
SH-SY5Y [2]
  viability at 5 µM: 24.7%
SH-SY5Y [3]
  viability at 0.5 µM: 8.4%

## O=C(NCCc1cn(Cc2ccccc2)c2ccccc12)c1ccc(O)cc1
SH-SY5Y [1]
  viability at 0.05 µM: 31.7%
SH-SY5Y [2]
  viability at 5 µM: 51.4%
SH-SY5Y [3]
  viability at 0.5 µM: 54.3%

## CC(C)Cn1cc(CCNC(=O)/C=C/c2ccc(O)cc2)c2ccccc21
SH-SY5Y [1]
  viability at 0.05 µM: 24.9%
SH-SY5Y [2]
  viability at 5 µM: 14.4%
SH-SY5Y [3]
  viability at 0.5 µM: 15.7%

## COc1ccc(Cn2cc(CCNC(=O)/C=C/c3ccc(O)cc3)c3ccccc32)cc1
SH-SY5Y [1]
  viability at 0.05 µM: 18.6%
SH-SY5Y [2]
  viability at 5 µM: 30.9%
SH-SY5Y [3]
  viability at 0.5 µM: 24.8%

## O=C(/C=C/c1ccc(O)cc1)NCCc1cn(Cc2cccc(Br)c2)c2ccccc12
[4]
  remaining at 10 min, 2 µM: 97.5%
[5]
  half-life at 2 µM: > 289 min
[6]
  remaining at 0.5 h, 2 µM: 98.8%
SH-SY5Y [1]
  viability at 0.05 µM: 35.7%
[11]
  AUC(0-inf): 863 ng·h/mL
[12]
  bioavailability: 3.12%
[7]
  remaining at 0 min, 2 µM: 100%
[8]
  Activity: Active
[13]
  Cmax: 182 ng/mL
[14]
  MRT inf: 85.2 min
[15]
  half-life: 40.2 min
SH-SY5Y [2]
  viability at 5 µM: 55.8%
[16]
  Activity: Active
[17]
  AUC(0-t) at 20 min: 261 ng·h/mL
[18]
  MRT last at 20 min: 26.4 min
[19]
  clearance: 20.4 mL/min/kg
Mus musculus [20]
  Activity: Active
[9]
  remaining at 2 h, 2 µM: 100%
[21]
  Cmax: 1910 ng/mL
[22]
  Tmax: 4.98 min
[23]
  MRT inf: 27 min
Mus musculus [24]
  Activity: Active
[25]
  half-life: 66.6 min
[26]
  MRT last at 20 min: 74.4 min
Mus musculus [27]
  Activity: Dose-Dependent Effect
[28]
  AUC(0-inf): 269 ng·h/mL
Mus musculus [29]
  Activity: Active
SH-SY5Y [3]
  viability at 0.5 µM: 48.8%
[30]
  AUC(0-t) at 20 min: 860 ng·h/mL
[10]
  remaining at 1 h, 2 µM: 100%
[31]
  Tmax: 30 min

## O=C(/C=C/c1ccc(O)cc1)NCCc1cn(Cc2cccc(F)c2)c2ccccc12
SH-SY5Y [1]
  viability at 0.05 µM: 28.6%
SH-SY5Y [2]
  viability at 5 µM: 18.8%
SH-SY5Y [3]
  viability at 0.5 µM: 21.8%
